target: T1, STAT6 (endogenous, HiBiT-tagged) in HeLa LgBiT clone 4.14 cells (Homo sapiens, UniProt P42226); experiment: STAT6 Degrader Assay (HiBiT based, HeLa LgBiT clone 4.14 cells, luminescence, DC50); format: cell-based; conditions: DC50 provided for test compounds with >80% Emax, geometric mean, read-out: STAT6 degradation DC50
T1 construct: These cells express endogenous STAT6; host or cells: HeLa LgBiT clone 4.14
T1 sequence (P42226 1-847): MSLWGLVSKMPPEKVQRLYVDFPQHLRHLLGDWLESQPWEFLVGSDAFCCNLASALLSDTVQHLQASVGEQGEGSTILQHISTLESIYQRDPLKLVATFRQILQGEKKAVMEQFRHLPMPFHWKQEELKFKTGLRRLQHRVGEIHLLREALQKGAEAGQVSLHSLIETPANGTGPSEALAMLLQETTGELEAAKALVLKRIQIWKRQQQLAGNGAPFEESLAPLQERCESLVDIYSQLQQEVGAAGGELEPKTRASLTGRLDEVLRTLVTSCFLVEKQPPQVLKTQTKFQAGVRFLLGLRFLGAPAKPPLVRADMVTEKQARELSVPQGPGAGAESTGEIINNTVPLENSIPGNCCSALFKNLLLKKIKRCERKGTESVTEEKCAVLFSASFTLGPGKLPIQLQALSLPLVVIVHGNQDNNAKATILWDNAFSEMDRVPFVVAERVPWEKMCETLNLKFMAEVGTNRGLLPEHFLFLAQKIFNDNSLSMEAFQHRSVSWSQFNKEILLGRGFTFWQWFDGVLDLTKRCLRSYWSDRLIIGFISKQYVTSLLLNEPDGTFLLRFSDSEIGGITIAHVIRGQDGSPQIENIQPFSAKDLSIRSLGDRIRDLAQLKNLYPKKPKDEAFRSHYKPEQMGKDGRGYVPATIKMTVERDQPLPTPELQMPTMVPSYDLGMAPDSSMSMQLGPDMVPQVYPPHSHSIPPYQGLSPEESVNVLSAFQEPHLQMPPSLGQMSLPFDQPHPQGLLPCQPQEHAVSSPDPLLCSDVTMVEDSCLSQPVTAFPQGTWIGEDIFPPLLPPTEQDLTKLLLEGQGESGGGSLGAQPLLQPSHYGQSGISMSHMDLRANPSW
Experimental: This was a HiBit based assay. A HeLa cell line stably transfected with a small protein, LgBit (Large Bit) was obtained from Promega. These cells express endogenous STAT6. A small 11 amino acid gene sequence (HiBiT) was inserted in the STAT6 gene using CRISPR technology. Once STAT6 protein is expressed in the cells, the HiBiT sequence will bind the LgBit in the cells resulting in a functional NanoBiT protein, giving a luminescent tag to STAT6. Single cell clones were prepared and the clone 4.14 was selected for the assay based on that clone showing high luminescence, high STAT6 phosphorylation upon stimulation with IL-4, and inhibition of luminescence when cells were treated with STAT6 siRNA. HeLa LgBiT clone 4.14 cells were suspended in DMEM with 10% FCS, 1% Pen/Strep, Na-pyrovate and Hygromycin B, at a concentration of […]. 5000 cells were added pr well of a 384 well plate and 20 nL of compound was added by Echo® liquid handler. NN6394A (terfenadine, a toxic compound) was added to control wells at 50 µM concentration to establish the assay window. In these wells the cells are dead which equals 100% degradation of STAT6. After 4-24 h of incubation at 37° C. under 5% CO2/95% air, […] substrate (Nano-GLO®) was added to the wells and the plates were centrifuged and incubated for 0.5 h. The luminescence in the wells as a measure of non-degraded STAT6 was measured in a plate reader (BMG Pherastar FSX). The dose-response curves for Examples 2a2, 2t1, 2 h3, and 2r1 are shown below (where percent degradation is plotted vs. test compound concentration in M on a log-scale).

Row | SMILES | DC50
1 | C[C@@H](c1cc2c(-c3ccc(N)nc3)ccnc2n1C)N1CCC(c2ccc(C(=O)N3CCN(CC4CCN(c5ccc(NC6CCC(=O)NC6=O)cc5F)CC4)CC3)cc2)CC1 (stereo partly drawn) [Example 2g63, 3-((4-(4-((4-(4-(1-((S)-1-(4-(6-aminopyridin-3-yl)-1-methyl-1H-pyrrolo[2,3-b]pyridin-2-yl)ethyl)piperidin-4-yl)benzoyl)piperazin-1-yl)methyl)piperidin-1-yl)-3-fluorophenyl)amino)piperidine-2,6-dione] | 48.3 nM
2 | COCc1nc2cc(-c3ccnc4c3cc([C@H](C)N3CCC(c5ccc(C(=O)N6CCC(CN7CCN(c8ccc(NC9CCC(=O)NC9=O)cc8Cl)CC7)CC6)cc5)CC3)n4C)ccc2[nH]1 (stereo partly drawn) [Example 2i4, 3-((3-chloro-4-(4-((1-(4-(1-((S)-1-(4-(2-(methoxymethyl)-1H-benzo[d]imidazol-5-yl)-1-methyl-1H-pyrrolo[2,3-b]pyridin-2-yl)ethyl)piperidin-4-yl)benzoyl)piperidin-4-yl)methyl)piperazin-1-yl)phenyl)amino)piperidine-2,6-dione] | 7.6 nM
3 | COCc1nc2cc(-c3ccnc4c3cc(CN3CCC(c5ccc(C(=O)N6CCC(CN7CCN(c8ccc(NC9CCC(=O)NC9=O)c(F)n8)CC7)CC6)cc5)CC3)n4C)ccc2[nH]1 (stereo not drawn) [Example 2n3, 3-((2-fluoro-6-(4-((1-(4-(1-((4-(2-(methoxymethyl)-1H-benzo[d]imidazol-5-yl)-1-methyl-1H-pyrrolo[2,3-b]pyridin-2-yl)methyl)piperidin-4-yl)benzoyl)piperidin-4-yl)methyl)piperazin-1-yl)pyridin-3-yl)amino)piperidine-2,6-dione] | 19.8 nM
4 | Cn1c(CN2CCC(c3ccc(C(=O)N4CCC(CN5CCN(c6ncc(NC7CCC(=O)NC7=O)cn6)CC5)CC4)cc3)CC2)cc2c(-c3ccc4[nH]ncc4c3)ccnc21 (stereo not drawn) [Example 2k1, 3-((2-(4-((1-(4-(1-((4-(1H-indazol-5-yl)-1-methyl-1H-pyrrolo[2,3-b]pyridin-2-yl)methyl)-piperidin-4-yl)benzoyl)piperidin-4-yl)methyl)piperazin-1-yl)pyrimidin-5-yl)amino)piperidine-2,6-dione] | 28.8 nM
5 | C[C@@H]1CN(c2ccc(NC3CCC(=O)NC3=O)cc2F)CCN1CC1CCN(C(=O)c2ccc(C3CCN(Cc4cc5c(-c6ccc(N)nc6)ccnc5n4C)CC3)cc2)CC1 (stereo partly drawn) [Example 2f6, 3-((4-((R)-4-((1-(4-(1-((4-(6-aminopyridin-3-yl)-1-methyl-1H-pyrrolo[2,3-b]pyridin-2-yl)-methyl)-piperidin-4-yl)benzoyl)piperidin-4-yl)methyl)-3-methylpiperazin-1-yl)-3-fluorophenyl)amino)-piperidine-2,6-dione] | 38.8 nM
6 | COCc1nc2cc(-c3ccnc4c3cc([C@H](C)N3CCC(c5ccc(C(=O)N6CCC(CN7CCC(c8ccc(NC9CCC(=O)NC9=O)cc8F)C(F)(F)C7)CC6)cc5)CC3)n4C)ccc2[nH]1 (stereo partly drawn) [Example 2m3, 3-((4-(3,3-difluoro-1-((1-(4-(1-((S)-1-(4-(2-(methoxymethyl)-1H-benzo[d]imidazol-5-yl)-1-methyl-1H-pyrrolo[2,3-b]pyridin-2-yl)ethyl)piperidin-4-yl)benzoyl)piperidin-4-yl)methyl)piperidin-4-yl)-3-fluorophenyl)amino)piperidine-2,6-dione] | 23.5 nM
7 | CC(c1cc2c(-c3ccc(N)nc3)ccnc2n1C)N1CCC(c2ccc(C(=O)N3CCC(CN4CCN(c5ccc(NC6CCC(=O)NC6=O)cc5F)CC4)CC3)cc2)CC1 (stereo not drawn) [Example 2c10, 3-((4-(4-((1-(4-(1-(1-(4-(6-aminopyridin-3-yl)-1-methyl-1H-pyrrolo[2,3-b]pyridin-2-yl)-ethyl)-piperidin-4-yl)benzoyl)piperidin-4-yl)methyl)piperazin-1-yl)-3-fluorophenyl)amino)piperidine-2,6-dione] | 14.1 nM
8 | CNc1ccc(-c2ccnc3c2cc([C@H](C)N2CCC(c4ccc(C(=O)N5CCn6nc(CN7CCC(c8ccc(NC9CCC(=O)NC9=O)cc8F)CC7)cc6C5)cc4)CC2)n3C)cn1 (mixture of isomers) [Example 2c41, 3-((3-fluoro-4-(1-((5-(4-(1-((S)-1-(1-methyl-4-(6-(methylamino)pyridin-3-yl)-1H-pyrrolo[2,3-b]pyridin-2-yl)ethyl)piperidin-4-yl)benzoyl)-4,5,6,7-tetrahydropyrazolo[1,5-a]pyrazin-2-yl)methyl)piperidin-4-yl)phenyl)amino)piperidine-2,6-dione] | 3.3 nM
9 | Cn1c(CN2CCC(c3ccc(C(=O)N4CCC(CN5CCN(c6ccc(NC7CCC(=O)NC7=O)c(F)n6)CC5)CC4)cc3)CC2)cc2c(-c3ccc4[nH]ncc4c3)ccnc21 (stereo not drawn) [Example 2n2, 3-((6-(4-((1-(4-(1-((4-(1H-indazol-5-yl)-1-methyl-1H-pyrrolo[2,3-b]pyridin-2-yl)methyl)-piperidin-4-yl)benzoyl)piperidin-4-yl)methyl)piperazin-1-yl)-2-fluoropyridin-3-yl)amino)piperidine-2,6-dione] | 28.6 nM
10 | CC(c1cc2c(-c3ccc(N)nc3)ccnc2n1C)N1CCC(c2ccc(C(=O)N3CCC(CN4CCN(c5ccc(N[C@H]6CCC(=O)NC6=O)cc5F)CC4)CC3)cc2)CC1 (single isomer, unassigned) [Example 2c11] | 11.2 nM
11 | COCc1nc2cc(-c3ccnc4c3cc(CN3CCC(c5ccc(C(=O)N6CCC(CN7CCC(N8CCN(c9ccc(NC%10CCC(=O)NC%10=O)cc9F)CC8)C(F)(F)C7)CC6)cc5)CC3)n4C)ccc2[nH]1 (stereo not drawn) [Example 2p3, 3-((4-(4-(3,3-difluoro-1-((1-(4-(1-((4-(2-(methoxymethyl)-1H-benzo[d]imidazol-5-yl)-1-methyl-1H-pyrrolo[2,3-b]pyridin-2-yl)methyl)piperidin-4-yl)benzoyl)piperidin-4-yl)methyl)piperidin-4-yl)piperazin-1-yl)-3-fluorophenyl)amino)piperidine-2,6-dione] | 20.6 nM

same assay, conditions: Emax provided for test compounds with <80% Emax (and 2c15), geometric mean, read-out: STAT6 degradation Emax

Row | SMILES | Emax
12 | Cn1c(CN2CCC(c3ccc(C(=O)N4CCC(CN5CCN(c6ccc(NC7CCC(=O)NC7=O)nc6)CC5)CC4)cc3)CC2)cc2c(-c3ccc4[nH]ncc4c3)ccnc21 (stereo not drawn) [Example 2t3, 3-((5-(4-((1-(4-(1-((4-(1H-indazol-5-yl)-1-methyl-1H-pyrrolo[2,3-b]pyridin-2-yl)methyl)piperidin-4-yl)benzoyl)piperidin-4-yl)methyl)piperazin-1-yl)pyridin-2-yl)amino)piperidine-2,6-dione] | 40 to 50%
13 | Cn1c(CN2CCC(c3ccc(C(=O)N4CCC(CN5CCN(C(=O)c6ccccc6NC6CCC(=O)NC6=O)CC5)CC4)cc3)CC2)cc2c(-c3ccc4[nH]ncc4c3)ccnc21 (stereo not drawn) [Example 2t2, 3-((2-(4-((1-(4-(1-((4-(1H-indazol-5-yl)-1-methyl-1H-pyrrolo[2,3-b]pyridin-2-yl)methyl)-piperidin-4-yl)benzoyl)piperidin-4-yl)methyl)piperazine-1-carbonyl)phenyl)amino)piperidine-2,6-dione] | < 20%
14 | Cn1c(CN2CCC(c3ccc(C(=O)N4CCC(CN5CCN(c6ccc(N[C@H]7CCC(=O)NC7=O)cc6F)CC5)CC4)cc3)CC2)cc2c(-c3ccc4[nH]ncc4c3)ccnc21 (single isomer, unassigned) [Example 2c5] | 70 to 80%
15 | C[C@@H](c1cc2c(-c3ccc(N)nc3)ccnc2n1C)N1CCC(c2ccc(C(=O)N3CCC(CN4CCN(c5ccc(NC6CCC(=O)NC6=O)cc5C#N)CC4)CC3)cc2)CC1 (stereo partly drawn) [Example 2i3, 2-(4-((1-(4-(1-((S)-1-(4-(6-aminopyridin-3-yl)-1-methyl-1H-pyrrolo[2,3-b]pyridin-2-yl)-ethyl)-piperidin-4-yl)benzoyl)piperidin-4-yl)methyl)piperazin-1-yl)-5-((2,6-dioxopiperidin-3-yl)amino)-benzonitrile] | 30 to 40%

Source: US20260014147A1, “STAT6 DEGRADERS” (Gilead Sciences, Inc., priority 2024, published 2026)
